Experimental findings from patent US20130071854A1, “METHODS FOR THE IDENTIFICATION AND CHARACTERIZATION OF HDAC INTERACTING COMPOUNDS” (priority 2009, published 2013) are described below.

Experiment [1] addresses MiDAC complex (HDAC1/2, DNTTIP1, CDYL, MIDEAS) (Homo sapiens, UniProt Q13547+Q92769). Nature of the experiment: Chemoproteomic binding profiling, K562 cell extract, SAHA/ITF2357 probe matrix (Kd app). Also on record: Kd^app MIDEAS; other: protein MIDEAS; MiDAC complex; Kd^app DNTTIP1; other: protein DNTTIP1.
The target in the next experiment is Sin3 complex (Homo sapiens, UniProt Q13547+Q92769). The experiment is described as above.
The test system of the next experiment is SAP30. Nature of the experiment: Competition binding assay in cell lysate, affinity matrix, MS (Sin3 interactor). Also on record: species or system human. To be noted: K-562 cell lysate.
The subject of the next experiment is RBBP4. To be noted: K-562 cell lysate.
For experiment [2], the system named is histone acetylation, K562 cells. Put plainly: Mapping of histone acetylation by LC-MS/MS of K562 cells treated with HDACi. To be noted: K562 cells treated 6 hours, isobaric tagging and MS/MS. Format: cell-based, human.
Experiment [3] deals with T1, MiDAC complex (HDAC1/2, DNTTIP1, CDYL, MIDEAS).
T1 construct: Kd^app MIDEAS; other: protein MIDEAS; MiDAC complex; Kd^app DNTTIP1; other: protein DNTTIP1
Nature of the experiment: Chemoproteomic binding profiling, K562 cell extract, SAHA/ITF2357 probe matrix (Kd app). On the set-up: species or system human.

Where [4] appears, read: protein DNTTIP1, read-out: Kd^app DNTTIP1.
The mark [5] stands for this setting: protein MIDEAS, read-out: Kd^app MIDEAS.

Like-named read-outs stand apart in the source and are kept apart here.

With `CCCCOc1ccc(CC(=O)NO)cc1` [bufexamac], the Kd in experiment [1] (setting [4]) was 418 µM; in experiment [1] (setting [5]), 476 µM; on Sin3 complex (protein SAP30, read-out: Kd^app SAP30), 125 µM; at Sin3 complex (protein SIN3A, read-out: Kd^app SIN3A), 185 µM; on Sin3 complex (protein SIN3B, read-out: Kd^app SIN3B), more than 59.7 µM.
Usually IC50 stands for the midpoint of a concentration-inhibition curve. Low readings indicate greater potency, high ones weaker potency. With `Nc1ccccc1NC(=O)c1ccc(CNC(=O)OCc2cccnc2)cc1` [MS-275], the IC50 in the experiment on SAP30 and in the experiment with RBBP4 was 300 µM throughout.
As for `CCCC(CCC)C(=O)O` [valproate, valproic acid], the “abundance of acetylated histone peptides (in words)” value in experiment [2] is reported as “more selective effect”.
For `Nc1ccccc1NC(=O)CCCCCCC(=O)Nc1ccccc1` [BML-210], the Kd in experiment [3] (setting [4]) and in experiment [3] (setting [5]) was more than 85 µM each time.
